Data reported in patent publication US6524810B2, “Method of making bioluminescent assay reagent based on non-viable E. coli” (Azur Environmental, priority 1998, dated 2003).

Legend:
Format in all cases: cell-based
[1] = system: Zeocin treated recombinant bioluminescent E. coli HB101 assay reagent; test: ZnSO4 sensitivity assay, Zeocin treated assay reagent; conditions: for SENSITIVITY-EC50 VALUES, ZEOCIN TREATED: 15 minutes exposure to ZnSO4, % toxic effect on light output
Procedure: (§1) 1. Bioluminescent genetically modified E. coil strain HB101 (E. coli HB101 made bioluminescent by transformation with a plasmid carrying the lux operon of vibrio fischeri constructed by the method of Shaw and Kado, as described in Biotechnology 4: 560-564) was grown in fermenter as a batch culture in low salt medium (LB(5 g/ml NaCl)+glycerol+MgSO4).
(§2) 2. Two aliquots of the culture were removed from the fermenter into separate sterile shaker flasks at each of three different stages of growth i.e. at OD630 values of 0.038 (lag phase growth), 1.31 (mid-exponential phase growth) and 2.468 (stationary phase growth).
3. One aliquot of culture for each of the three growth stages was inactivated by contact with Zeocin™ (1 mg Zeocin™ added per 2.5×10^6 cells, i.e. the concentration of Zeocin™ per cell is kept constant) for 300 minutes and then processed into assay reagent by freeze drying and reconstitution, as described in part (B) of Example 1.
(§3) 5. Samples of each of the three Zeocin™ treated and three control assay reagents were then evaluated for sensitivity to toxicant (ZnSO4) according to the following assay protocol:
1. ZnSO4 solutions were prepared in pure water at 30, 10, 3, 1, 0.3 and 0.1 ppm. Pure water was also used as a control.
2. Seven vials of each of the three Zeocin™ treated and each of the three control assay reagents (i.e. one for each of the six ZnSO4 solutions and one for the pure water control) were reconstituted using 0.5 ml of reconstitution solution (eg 0.2M sucrose) and then left to stand at room temperature for 15 minutes to allow the light output to stabilize. Base line (time zero) readings of light output were then measured for each of the reconstituted reagents.
3. 0.5 ml aliquots of each of the six ZnSO4 solutions and the pure water control were added to separate vials of reconstituted assay reagent. This was repeated for each of the different Zeocin™ treated and control assay reagents.
(§4) 4. The vials were incubated at room temperature and light output readings were taken 5, 10, 15, 20, 25 and 30 minutes after addition of ZnSO4 solution.
5. The % toxic effect for each sample was calculated as follows: [formula]
where: Co=light in control at time zero
Ct=light in control at reading time
So=light in sample at time zero
(§5) St=light in sample at reading time

[2] = system: control (Zeocin untreated) recombinant bioluminescent E. coli HB101 assay reagent; test: ZnSO4 sensitivity assay, control assay reagent; conditions: 15 minutes exposure to ZnSO4, % toxic effect on light output
Procedure: as §1, §2
4. An equal volume of water was added to the second aliquot of culture for each of the three growth stages and the cultures processed into assay reagent as described above.
as §3
1. […]
2. […] Base line (time zero) readings of light output were then measured for each of the reconstituted reagents. […]
as §4
5. The % toxic effect for each sample was calculated as follows: [formula] […]
Ct=light in control at reading time […]
as §5

[3] = system: recombinant bioluminescent E. coli strain HB101; test: Light output of culture during Zeocin treatment (Deltatox luminometer); conditions: 1.5 mg/ml Zeocin; 5 to 300 minutes
Procedure: (§6) 1. Bioluminescent genetically modified E. coil strain HB101 (E. coli HB101 made bioluminescent by transformation with a plasmid carrying the lux operon of Vibrio fischeri constructed by the method of Shaw and Kado, as described in Biotechnology 4: 560-564) were grown from a frozen stock in 5 ml of low salt medium (LB (5 g/ml NaCl)+glycerol+MgSO4) for 24 hours.
(§7) 2. 1 ml of the 5 ml culture was then used to inoculate 200 ml of low salt medium in a shaker flask and the resultant culture grown to an OD630 of 0.407 (exponential growth phase).
(§8) 3. 50 ml of this culture was removed to a fresh sterile shaker flask (control cells).
4. Zeocin™ was added to the 150 ml of culture in the original shaker flash, to a final concentration of 1.5 mg/ml. At the same time, an equivalent volume of water was added to the 50 ml culture removed from the original flask (control cells).
(§9) 5. The time course of cell inactivation was monitored by removing samples from the culture at 5, 60, 120, 180, 240 and 300 minutes after the addition of Zeocin™ and taking measurements of both light output (measured using a Deltatox luminometer) and viable count (per ml, determined using the method given in Example 3 below) for each of the samples. Samples of the control cells were removed at 5 and 300 minutes after the addition of water and measurements of light output and viable count taken as for the Zeocin™ treated cells.

[4] = system: recombinant bioluminescent E. coli strain HB101; test: Inactivation of bioluminescent E. coli: viable count time course; conditions: 1.5 mg/ml Zeocin; exponential growth phase culture
Procedure: as §6, §7, §8
4. Zeocin™ was added to the 150 ml of culture in the original shaker flash, to a final concentration of 1.5 mg/ml. […]
as §9, with “Samples of the control cells were removed at 5 and 300 minutes after the addition of water and measurements of light output and viable count taken as for the Zeocin™ treated cells.” left out
5. The number of bacterial colonies present for each of the three aliquots at each of the serial dilutions were counted and the values averaged. Viable count was calculated per ml of bacterial culture.

[5] = system: recombinant bioluminescent E. coli strain HB101; test: Light output of reconstituted freeze dried assay reagent; conditions: cells exposed to 1.5 mg/ml Zeocin for 5 hours, reconstituted in 0.2M sucrose
Procedure: Five hours after the addition of Zeocin™ or water the remaining bacterial cells in the Zeocin™ treated and control cultures were harvested by the centrifugation, washed (to remove traces of Zeocin™ from the Zeocin™ treated culture), re-centrifuged and resuspended in cryoprotectant to an OD630 of 0.25. 200 μl aliquots of the cells in cryoprotectant were dispensed into single shot vials, and freeze dried. Freeze dried samples of the Zeocin™ treated cells and control cells were reconstituted in 0.2M sucrose to form assay reagents and the light output of the assay reagents measured at various times after reconstitution.

SMILES	SENSITIVITY-EC50 VALUES, ZEOCIN TREATED ([1]; Expotential phase assay reagent)	SENSITIVITY-EC50 VALUES, ZEOCIN TREATED ([1]; Lag Phase assay reagent)	SENSITIVITY-EC50 VALUES, ZEOCIN TREATED ([1]; Stationary phase assay reagent)	SENSITIVITY-EC50 VALUES, CONTROL CELLS ([2]; Lag Phase assay reagent)	SENSITIVITY-EC50 VALUES, CONTROL CELLS ([2]; Stationary phase assay reagent)	effect of Zeocin treatment on sensitivity of assay reagent to ZnSO4 ([1]; 1 mg Zeocin per 2.5×10^6 cells for 300 minutes, three growth stages, versus control reagents)	light output from the culture with Zeocin contact time [3]	contact time for complete inactivation of the culture (viable count) [4]	light output of reconstituted assay reagent versus control (Zeocin untreated) cells [5]
O=S(=O)([O-])[O-].[Zn+2] [ZnSO4]	0.446 ppm ZnSO4	1.445 ppm ZnSO4	0.426 ppm ZnSO4	1.580 ppm ZnSO4	0.457 ppm ZnSO4	–	–	–	–
Cc1c(N)nc([C@H](CC(N)=O)NC[C@H](N)C(N)=O)nc1C(=O)N[C@H](C(=O)N[C@H](C)[C@@H](O)[C@H](C)C(=O)N[C@H](C(=O)NCCC1=N[C@@H](c2nc(C(=O)NCCCCN=C(N)N)cs2)CS1)[C@@H](C)O)[C@@H](O[C@@H]1O[C@@H](CO)[C@@H](O)[C@H](O)[C@@H]1O[C@H]1O[C@H](CO)[C@@H](O)[C@H](OC(N)=O)[C@@H]1O)c1cnc[nH]1 [Zeocin™, phleomycin D1]	–	–	–	–	–	does not significantly affect	decrease gradually	3 h	not significantly different
